System: transgenic Arabidopsis thaliana T1 plants
Test: Detection of the herbicide tolerance of the transgenic Arabidopsis thaliana plants
Format: in vivo
Conditions: for The grade of pesticide damage/plant: 0 / The grade of pesticide damage/plant: 1 / The grade of pesticide damage/plant: 2 / The grade of pesticide damage/plant: 3: 7 DAT
Excerpt: The transformed Arabidopsis thaliana T1 plants were initially selected using glufosinate herbicide. The Arabidopsis thaliana T1 plants (PPOA-01) into which the PPOA-01 nucleotide sequence was introduced, the Arabidopsis thaliana T1 plants (PPOB-01) into which the PPOB-01 nucleotide sequence was introduced, the Arabidopsis thaliana T1 plants (PPOC-01) into which the PPOC-01 nucleotide sequence was introduced, the Arabidopsis thaliana T1 plants (PPOD-01) into which the PPOD-01 nucleotide sequence was introduced, the Arabidopsis thaliana T1 plants (PPOE-01) into which the PPOE-01 nucleotide sequence was introduced, the Arabidopsis thaliana T1 plants (PPOF-01) into which the PPOF-01 nucleotide sequence was introduced, the Arabidopsis thaliana T1 plants (PPO-AP-01) into which the PPO-AP-01 nucleotide sequence was introduced, and the Arabidopsis thaliana T1 plants (control vector) into which the control vector was introduced, the wild-type Arabidopsis thaliana plants (CK) (with 24 plants being included in each genotype) (18 days after sowing) were sprayed with saflufenacil at three concentrations (25 g ai/ha (one-fold field concentration, 1×), 100 g ai/ha (four-fold field concentration, 4×), and 0 g ai/ha (water, 0×)), oxyfluorfen at three concentrations (180 g ai/ha (one-fold field concentration, 1×), 720 g ai/ha (four-fold field concentration, 4×), and 0 g ai/ha (water, 0×)), and flumioxazin at three concentrations (60 g ai/ha (one-fold field concentration, 1×), 240 g ai/ha (four-fold field concentration, 4×), and 0 g ai/ha (water, 0×) to determine the tolerance of Arabidopsis thaliana to the herbicides. After 7 days of spraying (7 DAT), the damage level of each plant caused by the herbicide was evaluated according to the average of the damage levels (%) of plants (the average of the damage levels (%) of plants=the injured leaf area/the total leaf area×100%), i.e., the grade of pesticide damage: grade 0 means that the growth status of plants is essentially consistent with those sprayed with the blank solvent (water); grade 1 means that the average of the damage levels of plants is less than 10%; grade 2 means that the average of the damage levels of plants is greater than 10%; and grade 3 means that the average of the damage levels of plants is 100%. The plants having a growth status falling within grades 0 and 1 are classified as highly resistant plants; those having a growth status falling within grade 2 are classified as poorly resistant plants; and those having a growth status falling within grade 3 are classified as non-resistant plants.

[1] = genotype Control vector, 25 g ai/ha
[2] = genotype Control vector, 100 g ai/ha
[3] = genotype PPO-AP-01, 100 g ai/ha

CC(C)N(C)S(=O)(=O)NC(=O)c1cc(-n2c(=O)cc(C(F)(F)F)n(C)c2=O)c(F)cc1Cl [saflufenacil, N′-[2-chloro-4-fluoro-5-(3-methyl-2,6-dioxo-4-(trifluoromethyl)-3,6-dihydro-1 (2H)-pyrimidine)benzoyl]-N-isopropyl-N-methylsulfamide]
effective dose distinguishing sensitive plants from plants having an average level of resistance (Arabidopsis thaliana): 25 g ai/ha
The grade of pesticide damage/plant: 0 (genotype CK, 25 g ai/ha): 0 plant
The grade of pesticide damage/plant: 1 (genotype CK, 25 g ai/ha): 0 plant
The grade of pesticide damage/plant: 2 (genotype CK, 25 g ai/ha): 0 plant
The grade of pesticide damage/plant: 3 (genotype CK, 25 g ai/ha): 24 plant
The grade of pesticide damage/plant: 0 (genotype CK, 100 g ai/ha): 0 plant
The grade of pesticide damage/plant: 1 (genotype CK, 100 g ai/ha): 0 plant
The grade of pesticide damage/plant: 2 (genotype CK, 100 g ai/ha): 0 plant
The grade of pesticide damage/plant: 3 (genotype CK, 100 g ai/ha): 24 plant
The grade of pesticide damage/plant: 0 [1]: 0 plant
The grade of pesticide damage/plant: 1 [1]: 0 plant
The grade of pesticide damage/plant: 2 [1]: 0 plant
The grade of pesticide damage/plant: 3 [1]: 24 plant
The grade of pesticide damage/plant: 0 [2]: 0 plant
The grade of pesticide damage/plant: 1 [2]: 0 plant
The grade of pesticide damage/plant: 2 [2]: 0 plant
The grade of pesticide damage/plant: 3 [2]: 24 plant
The grade of pesticide damage/plant: 0 (genotype PPO-AP-01, 25 g ai/ha): 0 plant
The grade of pesticide damage/plant: 1 (genotype PPO-AP-01, 25 g ai/ha): 0 plant
The grade of pesticide damage/plant: 2 (genotype PPO-AP-01, 25 g ai/ha): 0 plant
The grade of pesticide damage/plant: 3 (genotype PPO-AP-01, 25 g ai/ha): 24 plant
The grade of pesticide damage/plant: 0 [3]: 0 plant
The grade of pesticide damage/plant: 1 [3]: 0 plant
The grade of pesticide damage/plant: 2 [3]: 0 plant
The grade of pesticide damage/plant: 3 [3]: 24 plant
tolerance to the herbicide (in words) (genotype PPO-AP-01, at different concentrations): no tolerance
The grade of pesticide damage/plant: 0 (genotype PPOA-01, 25 g ai/ha): 24 plant
The grade of pesticide damage/plant: 1 (genotype PPOA-01, 25 g ai/ha): 0 plant
The grade of pesticide damage/plant: 2 (genotype PPOA-01, 25 g ai/ha): 0 plant
The grade of pesticide damage/plant: 3 (genotype PPOA-01, 25 g ai/ha): 0 plant
The grade of pesticide damage/plant: 0 (genotype PPOA-01, 100 g ai/ha): 0 plant
The grade of pesticide damage/plant: 1 (genotype PPOA-01, 100 g ai/ha): 24 plant
The grade of pesticide damage/plant: 2 (genotype PPOA-01, 100 g ai/ha): 0 plant
The grade of pesticide damage/plant: 3 (genotype PPOA-01, 100 g ai/ha): 0 plant
The grade of pesticide damage/plant: 0 (genotype PPOB-01, 25 g ai/ha): 24 plant
The grade of pesticide damage/plant: 1 (genotype PPOB-01, 25 g ai/ha): 0 plant
The grade of pesticide damage/plant: 2 (genotype PPOB-01, 25 g ai/ha): 0 plant
The grade of pesticide damage/plant: 3 (genotype PPOB-01, 25 g ai/ha): 0 plant
The grade of pesticide damage/plant: 0 (genotype PPOB-01, 100 g ai/ha): 0 plant
The grade of pesticide damage/plant: 1 (genotype PPOB-01, 100 g ai/ha): 24 plant
The grade of pesticide damage/plant: 2 (genotype PPOB-01, 100 g ai/ha): 0 plant
The grade of pesticide damage/plant: 3 (genotype PPOB-01, 100 g ai/ha): 0 plant
The grade of pesticide damage/plant: 0 (genotype PPOC-01, 25 g ai/ha): 24 plant
The grade of pesticide damage/plant: 1 (genotype PPOC-01, 25 g ai/ha): 0 plant
The grade of pesticide damage/plant: 2 (genotype PPOC-01, 25 g ai/ha): 0 plant
The grade of pesticide damage/plant: 3 (genotype PPOC-01, 25 g ai/ha): 0 plant
The grade of pesticide damage/plant: 0 (genotype PPOC-01, 100 g ai/ha): 0 plant
The grade of pesticide damage/plant: 1 (genotype PPOC-01, 100 g ai/ha): 24 plant
The grade of pesticide damage/plant: 2 (genotype PPOC-01, 100 g ai/ha): 0 plant
The grade of pesticide damage/plant: 3 (genotype PPOC-01, 100 g ai/ha): 0 plant
The grade of pesticide damage/plant: 0 (genotype PPOD-01, 25 g ai/ha): 24 plant
The grade of pesticide damage/plant: 1 (genotype PPOD-01, 25 g ai/ha): 0 plant
The grade of pesticide damage/plant: 2 (genotype PPOD-01, 25 g ai/ha): 0 plant
The grade of pesticide damage/plant: 3 (genotype PPOD-01, 25 g ai/ha): 0 plant
The grade of pesticide damage/plant: 0 (genotype PPOD-01, 100 g ai/ha): 0 plant
The grade of pesticide damage/plant: 1 (genotype PPOD-01, 100 g ai/ha): 24 plant
The grade of pesticide damage/plant: 2 (genotype PPOD-01, 100 g ai/ha): 0 plant
The grade of pesticide damage/plant: 3 (genotype PPOD-01, 100 g ai/ha): 0 plant
The grade of pesticide damage/plant: 0 (genotype PPOE-01, 25 g ai/ha): 24 plant
The grade of pesticide damage/plant: 1 (genotype PPOE-01, 25 g ai/ha): 0 plant
The grade of pesticide damage/plant: 2 (genotype PPOE-01, 25 g ai/ha): 0 plant
The grade of pesticide damage/plant: 3 (genotype PPOE-01, 25 g ai/ha): 0 plant
The grade of pesticide damage/plant: 0 (genotype PPOE-01, 100 g ai/ha): 0 plant
The grade of pesticide damage/plant: 1 (genotype PPOE-01, 100 g ai/ha): 24 plant
The grade of pesticide damage/plant: 2 (genotype PPOE-01, 100 g ai/ha): 0 plant
The grade of pesticide damage/plant: 3 (genotype PPOE-01, 100 g ai/ha): 0 plant
The grade of pesticide damage/plant: 0 (genotype PPOF-01, 25 g ai/ha): 24 plant
The grade of pesticide damage/plant: 1 (genotype PPOF-01, 25 g ai/ha): 0 plant
The grade of pesticide damage/plant: 2 (genotype PPOF-01, 25 g ai/ha): 0 plant
The grade of pesticide damage/plant: 3 (genotype PPOF-01, 25 g ai/ha): 0 plant
The grade of pesticide damage/plant: 0 (genotype PPOF-01, 100 g ai/ha): 0 plant
The grade of pesticide damage/plant: 1 (genotype PPOF-01, 100 g ai/ha): 24 plant
The grade of pesticide damage/plant: 2 (genotype PPOF-01, 100 g ai/ha): 0 plant
The grade of pesticide damage/plant: 3 (genotype PPOF-01, 100 g ai/ha): 0 plant
tolerance to the herbicide (in words) (genotypes PPOA-01 to PPOF-01, at different concentrations, compared with the control vector and CK): high-resistant tolerance

Source: patent publication US20250275540A1, “USE OF PROTOPORPHYRINOGEN OXIDASE” (BEIJING DABEINONG BIOTECHNOLOGY CO., LTD., priority 2022, published 2025)
